The structures appear in SMILES notation.

Experimental findings from patent US20170159101A1, “DRUG-RESISTANT P97 ATPASE MUTATIONS” (Cleave Biosciences, Inc., priority 2014, published 2017) are described below.

Assay [1] concerns Hct116 resistant cell line clone #207 (p97 V485D). The assay can be described thus: GI50 fold-change, resistant clone #207 vs parental. Particulars: Clone #207, Hct116, resistance generated with compound 4, T1454A / V485D; 72 hrs. Type of assay: cell-based, human. As for the experimental part:
(§1) Dose titration of test compounds were conducted in Hct116, DLD-1, or LoVo cell lines. In brief, cells were plated in 384-well plates and a selected candidate drug compound was added in a 10-point 2-fold serial dilution.

The test system of assay [2] is Hct116 resistant cell line clone #6 (p97 A528T). The assay can be described thus: GI50 fold-change, resistant clone #6 vs parental. Particulars: Clone #6, Hct116, resistance generated with compound 2, G1582 / A528T; 72 hrs. Type of assay: cell-based, human. Here is the method: as §1
Assay [3] deals with DLD-1 resistant cell line clone #64 (p97 N660N/S). The assay can be described thus: GI50 fold-change, resistant clone #64 vs parental. It counts as cell-based, human. Particulars: Clone #64, DLD-1, resistance generated with compound 4, A1979G/A / N660N/S; 72 hrs. Here is the method:
as §1

Assay [4] concerns Hct116 resistant cell line clone #3 (p97 G481A). Particulars: Clone #3, Hct116, resistance generated with compound 2, G1442C / G481A; 72 hrs.
In assay [5] the test system is Hct116 resistant cell line clone #27 (p97 T688A). The assay can be described thus: GI50 fold-change, resistant clone #27 vs parental. It counts as cell-based, human. Particulars: Clone #27, Hct116, resistance generated with compound 4, A2062G / T688A; 72 hrs. Here is the method:
as §1

Assay [6] relates to DLD-1 resistant cell line clone #87 (p97 S541P). Put plainly: GI50 fold-change, resistant clone #87 vs parental. Type of assay: cell-based, human. Particulars: Clone #87, DLD-1, resistance generated with compound 4, T1621T/C / S541P; 72 hrs. Here is the method:
as §1

The test system of assay [7] is LoVo resistant cell line clone #221 (p97 V474V/A). The assay can be described thus: GI50 fold-change, resistant clone #221 vs parental. Type of assay: cell-based, human. The following applies: Clone #221, LoVo, resistance generated with compound 4, T1421C/T / V474V/A; 72 hrs. As for the experimental part:
(§2) Dose titration of test compounds were conducted in Hct116, DLD-1, or LoVo cell lines. In brief, cells were plated in 384-well plates and a selected candidate drug compound was added in a 10-point 2-fold serial dilution. […] Hct116 cells were plated at 50,000 cells per 15 cm dish and treated with GI50-GI90 doses of test compound for 2-4 weeks until individual colonies of cells were visible on the plate.

The test system of assay [8] is Hct116 resistant cell line clone #33 (p97 P472L). Put plainly: GI50 fold-change, resistant clone #33 vs parental. The following applies: Clone #33, Hct116, resistance generated with compound 4, C1415T / P472L; 72 hrs. Type of assay: cell-based, human. As for the experimental part: as §1
In assay [9] the test system is p97 inhibitor resistant cell lines. The assay can be described thus: GI50 fold-change in p97 inhibitor resistant cell lines (overall). Type of assay: cell-based, human. Particulars: all resistant cell lines of Table 1, in words. Here is the method:
as §1

Assay [10] has as its system Hct116 resistant cell line clone #29 (p97 N660K). Put plainly: GI50 fold-change, resistant clone #29 vs parental. It counts as cell-based, human. Particulars: Clone #29, Hct116, resistance generated with compound 4, C1980A / N660K; 72 hrs. As for the experimental part:
as §1

In assay [11] the test system is Hct116 resistant cell line clone #152 (p97 T688I). Put plainly: GI50 fold-change, resistant clone #152 vs parental. It counts as cell-based, human. The following applies: Clone #152, Hct116, resistance generated with compound 4, C2063T / T688I; 72 hrs. As for the experimental part:
as §2

Assay [12] concerns Hct116 resistant cell line clone #139 (p97 P472S). Put plainly: GI50 fold-change, resistant clone #139 vs parental. It counts as cell-based, human. Particulars: Clone #139, Hct116, resistance generated with compound 4, C1414T / P472S; 72 hrs. Here is the method:
as §1

For `CC(C)C[C@H](NC(=O)[C@H](Cc1ccccc1)NC(=O)c1cnccn1)B(O)O` [Compound 1, [(1R)-3-methyl-1-[(2S)-3-phenyl-2-(pyrazin-2-ylformamido)propanamido]butyl]boronic acid, reference compound], the “Fold Change in GI50 Compared to Parental Cell Line” value (from here on “Fold Change”) in assay [1] is reported as 1.0 fold; in assay [2], 1.1 fold; in assay [3], 0.7 fold; in [4] it was 0.9 fold; in assay [5], 1.1 fold; in [6] it was 1.1 fold. Further, the “Fold Change” value in assay [7] was found to be 0.9 fold; in assay [8] it was 0.9 fold; in assay [10] it was 0.9 fold; in assay [11] it was 1.0 fold; in assay [12], 1.0 fold. Also, the “fold-change in GI50 for the p97 inhibitor resistant cell lines” value in [9] is given as “little fold-change in GI50”.

Turning to `Cc1cc2c(C(N)=O)cccc2n1-c1nc2c(c(NCc3ccccc3)n1)COCC2` [Compound 4, 1-[4-(benzylamino)-5H,7H,8H-pyrano[4,3-d]pyrimidin-2-yl]-2-methyl-1H-indole-4-carboxamide], the “Fold Change” value was 17.0 fold in assay [1]; 11.8 fold in assay [2]; 1.2 fold in assay [3]; 19.4 fold in assay [4]; 50.3 fold in assay [5]; 39.8 fold in assay [6]. Also, the “Fold Change” value in assay [7] was found to be 2.2 fold; in assay [8] it was 11.6 fold; in [10], 16.5 fold; in [11], 60.7 fold; in [12], 4.8 fold.
